Assay results taken from patent publication US9944598B2, “Mono- or di-substituted indole derivatives as dengue viral replication inhibitors” (priority 2014, dated 2018).

Legend:
Type in all cases: cell-based
[1] = tested on: uninfected Vero cells; assay: in vitro; conditions: African green monkey
Description: (§1) Potential cytotoxic effects of the compounds were evaluated in uninfected Vero cells. Cells were seeded at 4×10^4 cells/well in a 96-well plate in the presence of two-, three- or five-fold serial dilutions (ranging from 50 μg/mL-0.0038 μg/mL, 50 μg/mL-0.0076 μg/mL, and 50 μg/mL-0.00013 μg/mL, respectively) of compound and incubated for 4 to 7 days. Culture medium was discarded and 100 μL 3-(4,5-dimethylthiazol-2-yl)-5-(3-carboxymethoxyphenyl)-2-(4-sulfophenyl)-2H-tetrazolium/phenazinemethosulfate (MTS/PMS; Promega, Leiden, The Netherlands) in PBS was added to each well. Following a 2-hour incubation period at 37° C., the optical density was determined at 498 nm. Cytotoxic activity was calculated using the following formula: % cell viability=100×(ODCompound/ODCC), where ODCompound and ODCC correspond to the optical density at 498 nm of the uninfected cell cultures treated with compound and that of uninfected, untreated cell cultures, respectively. The 50% cytotoxic concentration (i.e., the concentration that reduces the total cell number with 50%; CC50) was calculated using linear interpolation (Tables 7 and 8).

[2] = in vitro; conditions: African green monkey, CC50
Description: as §1

[3] = tested on: DENV-2 strain 16681; assay: Tetravalent RT-qPCR assay Protocol A, serotype 2; conditions: Dengue virus, DENV2, 72 h, RT-qPCR serotype 2 16681, Vero cells, 3 days
Description: The antiviral activity of the compounds of the invention was tested against DENV-1 strain TC974#666 (NCPV), DENV-2 strain 16681, DENV-3 strain H87 (NCPV) and DENV-4 strains H241 (NCPV) and EDEN (SG/06K2270DK1/2005; GenBank accession number QG398256) in a RT-qPCR assay. Therefore, Vero cells were infected with either DENV-1, or -2, or -3, or -4 in the presence or absence of test compounds. At day 3 post-infection, the cells were lysed and cell lysates were used to prepare cDNA of both a viral target (the 3′UTR of DENV; table 2) and a cellular reference gene (β-actin, table 2). Subsequently, a duplex real time PCR was performed on a Lightcycler480 instrument. The generated Cp value is inversely proportional to the amount of RNA expression of these targets. Inhibition of DENV replication by a test compound result in a shift of Cp's for the 3′UTR gene. On the other hand, if a test compound is toxic to the cells, a similar effect on β-actin expression will be observed. The comparative ΔΔCp method is used to calculate EC50, which is based on the relative gene expression of the target gene (3′UTR) normalized with the cellular housekeeping gene (β-actin). In addition, CC50 values were determined based on the Cp values acquired for the housekeeping gene β-actin.
The culture medium consisted of minimal essential medium supplemented with 2% of heat-inactivated fetal calf serum, 0.04% gentamycin (50 mg/mL) and 2 mM of L-glutamine. Vero cells, obtained from ECACC, were suspended in culture medium and 75 μL/well was added in 96-well plates (10000 cells/well), which already contain the antiviral compounds. Typically, these plates contain a 4-fold serial dilution of 9 dilution steps of the test compound at 200 times the final concentration in 100% DMSO (500 nL; final concentration range: 25 μM-0.00038 μM). In addition, each plate contains wells which are assigned as virus controls (containing cells and virus in the absence of compound) and cell controls (containing cells in the absence of virus and compound). Once the cells were added in the plates, the plates were incubated in a fully humidified incubator (37° C., 5% CO2) until the next day. Then, DENV-1 strain TC974#666, DENV-2 strain 16681, DENV-3 strain H87 or DENV-4 strains H241 or EDEN were added. […] In parallel, 25 μL of culture medium was added to the cell controls. Next, the plates were incubated for 3 days in a fully humidified incubator (37° C., 5% CO2). After 3 days, the supernatant was removed from the wells and the cells were washed twice with ice-cold PBS (˜100 μL). The cell pellets within the 96-well plates were stored at −80° C. for at least 1 day. Next, RNA was extracted using the Cells-to-CT™ lysis kit, according to the manufacture's guideline (Applied Biosystems). The cell lysates can be stored at −80° C. or immediately used in the reverse transcription step.
In preparation of the reverse transcription step, mix A (table 3A) was prepared and 7.57 μL/well was dispensed in a 96-well plate. After addition of 5 μL of the cell lysates, a five minute denaturation step at 75° C. was performed (table 3B). Afterwards, 7.43 μL of mix B was added (table 3C) and the reverse transcription step was initiated (table 3D) to generate cDNA.
Finally, a RT-qPCR mix was prepared, mix C (table 4A), dispensed in 96-well LightCycler qPCR plates to which 3 μL of cDNA was added and the qPCR was performed according to the conditions in table 4B on a LightCycler 480.
Using the LightCycler software and an in-house LIMS system, dose response curves for each compound were calculated and the half maximal effective concentration (EC50) and the half maximal cytotoxic concentration (CC50) were determined (Tables 6-9).

Structure (SMILES): COc1cc(NC(C(=O)c2c[nH]c3cc(F)ccc23)c2ccc(Cl)cc2OC)cc(OCCO)c1 (single isomer, unassigned) [Compound 1A, 2-(4-chloro-2-methoxyphenyl)-1-(6-fluoro-1H-indol-3-yl)-2-((3-(2-hydroxyethoxy)-5-methoxyphenyl)amino)ethanone]
- CC50 [1]: 14 µM
- CC50 [2]: 9.7 µM
- EC50 [3]: 0.0011 µM

Structure (SMILES): COc1cc(NC(C(=O)c2c[nH]c3c(C)c(F)ccc23)c2ccc(Cl)cc2OC)cc(OCCO)c1 (single isomer, unassigned) [Compound 2A, 2-(4-chloro-2-methoxyphenyl)-1-(6-fluoro-7-methyl-1H-indol-3-yl)-2-((3-(2-hydroxyethoxy)-5-methoxyphenyl)amino)ethanone]
- CC50 [1]: 13 µM
- CC50 [2]: 7.4 µM
- EC50 [3]: 0.00085 µM

Structure (SMILES): COc1cc(NC(C(=O)c2c[nH]c3c(C)c(Cl)ccc23)c2ccc(Cl)cc2OC)cc(OCCO)c1 (single isomer, unassigned) [Compound 3A, 2-(4-chloro-2-methoxyphenyl)-1-(6-chloro-7-methyl-1H-indol-3-yl)-2-((3-(2-hydroxyethoxy)-5-methoxyphenyl)amino)ethanone]
- CC50 [1]: 12 µM
- CC50 [2]: 7.7 µM
- EC50 [3]: 0.00024 µM

Structure (SMILES): COc1cc(NC(C(=O)c2c[nH]c3cc(Cl)ccc23)c2ccc(Cl)cc2OC)cc(OCCO)c1 (single isomer, unassigned) [Compound 4A, 1-(6-chloro-1H-indol-3-yl)-2-(4-chloro-2-methoxyphenyl)-2-((3-(2-hydroxyethoxy)-5-methoxyphenyl)amino)ethanone]
- CC50 [1]: 13 µM
- CC50 [2]: 9.5 µM
- EC50 [3]: 0.00044 µM

Structure (SMILES): COc1cc(NC(C(=O)c2c[nH]c3cc(OC)ccc23)c2ccc(Cl)cc2OC)cc(OCCO)c1 (single isomer, unassigned) [Compound 5A, 2-(4-chloro-2-methoxyphenyl)-2-((3-(2-hydroxyethoxy)-5-methoxyphenyl)amino)-1-(6-methoxy-1H-indol-3-yl)ethanone]
- CC50 [1]: 11 µM
- CC50 [2]: 7.8 µM
- EC50 [3]: 0.0005 µM

Structure (SMILES): COc1cc(NC(C(=O)c2c[nH]c3cc(OC)c(C)cc23)c2ccc(Cl)cc2OC)cc(OCCO)c1 (single isomer, unassigned) [Compound 6A, 2-(4-chloro-2-methoxyphenyl)-2-((3-(2-hydroxyethoxy)-5-methoxyphenyl)amino)-1-(6-methoxy-5-methyl-1H-indol-3-yl)ethanone]
- CC50 [1]: 13 µM
- CC50 [2]: 8.1 µM
- EC50 [3]: 0.00054 µM

Structure (SMILES): COc1cc(NC(C(=O)c2c[nH]c3cc(OC)c(F)cc23)c2ccc(Cl)cc2OC)cc(OCCO)c1 (single isomer, unassigned) [Compound 7A, 2-(4-chloro-2-methoxyphenyl)-1-(5-fluoro-6-methoxy-1H-indol-3-yl)-2-((3-(2-hydroxyethoxy)-5-methoxyphenyl)amino)ethanone]
- CC50 [1]: 12 µM
- CC50 [2]: 7.2 µM
- EC50 [3]: 0.00091 µM

Structure (SMILES): COc1cc(NC(C(=O)c2c[nH]c3c(C)cc(F)cc23)c2ccc(Cl)cc2OC)cc(OCCO)c1 (single isomer, unassigned) [Compound 8A, 2-(4-chloro-2-methoxyphenyl)-1-(5-fluoro-7-methyl-1H-indol-3-yl)-2-((3-(2-hydroxyethoxy)-5-methoxyphenyl)amino)ethanone]
- CC50 [1]: 11 µM
- CC50 [2]: 7.7 µM
- EC50 [3]: 0.0012 µM

Structure (SMILES): COc1cc(NC(C(=O)c2c[nH]c3cc(F)c(F)cc23)c2ccc(Cl)cc2OC)cc(OCCO)c1 (single isomer, unassigned) [Compound 9A, 2-(4-chloro-2-methoxyphenyl)-1-(5,6-difluoro-1H-indol-3-yl)-2-((3-(2-hydroxyethoxy)-5-methoxyphenyl)amino)ethanone]
- CC50 [1]: 12 µM
- CC50 [2]: 7.9 µM
- EC50 [3]: 0.00079 µM

Structure (SMILES): COc1cc(NC(C(=O)c2c[nH]c3c(F)cc(C)cc23)c2ccc(Cl)cc2OC)cc(OCCO)c1 (single isomer, unassigned) [Compound 10A, 2-(4-chloro-2-methoxyphenyl)-1-(7-fluoro-5-methyl-1H-indol-3-yl)-2-((3-(2-hydroxyethoxy)-5-methoxyphenyl)amino)ethanone]
- CC50 [1]: 12 µM
- CC50 [2]: 8 µM
- EC50 [3]: 0.0032 µM

Structure (SMILES): COc1cc(NC(C(=O)c2c[nH]c3c(F)c(F)ccc23)c2ccc(Cl)cc2OC)cc(OCCO)c1 (single isomer, unassigned) [Compound 11B, 2-(4-chloro-2-methoxyphenyl)-1-(6,7-difluoro-1H-indol-3-yl)-2-((3-(2-hydroxyethoxy)-5-methoxyphenyl)amino)ethanone]
- CC50 [1]: 11 µM
- CC50 [2]: 7.7 µM
- EC50 [3]: 0.001 µM
